Reference: patent US11512128B2, “VEGF/DLL4 binding agents and uses thereof” (MEREO BIOPHARMA 5, INC., priority 2011, dated 2022)

Key:
[1] = tested on: OMP-PN8 pancreatic tumor cells; test: Tumorigenicity of OMP-PN8 pancreatic tumor cells after treatment (serial transplantation); assay type: in vivo, NOD/SCID mice; settings: 90 cells from treated tumors transplanted, day 55, no treatment; 21M18, bevacizumab 15 mg/kg, bispecifics 30 mg/kg, gemcitabine 70 mg/kg, four weeks
Method: FIG. 6. Tumorigenicity of pancreatic tumor cells after treatment with anti-VEGF/anti-DLL4 bispecific antibodies. OMP-PN8 tumor cells from mice treated with control antibody, anti-hDLL4 antibody 21M18, anti-VEGF antibody bevacizumab, or anti-VEGF/anti-DLL4 bispecific antibodies 219R45-MB-21M18 or 219R45-MB-21R79 with or without gemcitabine were processed to single cell suspensions, and serially transplanted into mice. 90 cells from each treatment group were injected subcutaneously into NOD/SCID mice. Tumors were allowed to grow with no treatment. Data is shown as tumor volume (mm^3) on day 55. Tumor frequency is shown as number of tumors over total number of mice injected in each group.
Mice bearing OMP-PN8 pancreatic tumors were treated with control antibody (15 mg/kg), anti-hDLL4 antibody 21M18 (15 mg/kg), anti-VEGF antibody bevacizumab (15 mg/kg), or anti-VEGF/anti-DLL4 bispecific antibodies 219R45-MB-21M18 or 219R45-MB-21R79 (30 mg/kg) with or without gemcitabine (70 mg/kg). Following four weeks of treatment, tumors were harvested, processed to single cell suspensions and the human tumor cells were purified by immunomagnetic depletion of murine cells. 90 human tumor cells from each treatment group were transferred to a new cohort of mice (n=10 mice/group). Tumors were allowed to grow for 55 days without any treatment and tumor volumes were measured with electronic calipers.

[2] = tested on: OMP-C8 colon tumor; test: Tumorigenicity of OMP-C8 colon tumors after treatment (serial transplantation); assay type: in vivo, NOD/SCID mice; settings: 150 cells from treated tumors transplanted, day 68; without irinotecan combination
Method: FIG. 10. Tumorigenicity of […] colon tumor cells after treatment with anti-VEGF/anti-DLL4 bispecific antibodies. Tumors from mice treated with control antibody, anti-hDLL4 antibody 21M18, anti-VEGF antibody bevacizumab, a combination of 21M18 and bevacizumab, or anti-VEGF/anti-DLL4 bispecific antibodies 219R45-MB-21M18 or 219R45-MB-21R79 with or without irinotecan were processed to single cell suspensions, and serially transplanted into mice. 150 cells from each treatment group were injected subcutaneously into NOD/SCID mice. Tumors were allowed to grow with no treatment. Data are shown as tumor volume (mm^3) on day 68.
Single cell suspensions of OMP-C8 colon tumor xenografts (20,000 cells) were injected subcutaneously into the flanks of 6-8 week old NOD/SCID mice. Tumors were allowed to grow for 33 days until they reached an average volume of 300 mm^3. The mice were randomized (n=5 per group) and treated with anti-DLL4 antibody 21M18, anti-VEGF antibody bevacizumab, a combination of antibodies 21M18 and bevacizumab, anti-VEGF/anti-DLL4 bispecific antibody 219R45-MB-21M18, anti-VEGF/anti-DLL4 bispecific antibody 219R45-MB-21R79, or control antibody, either in combination with irinotecan or without irinotecan. Antibodies and irinotecan were dosed weekly by injection into the intraperitoneal cavity. Antibodies 21M18 and bevacizumab were dosed at 7.5 mg/kg, bispecific antibodies 219R45-MB-21M18 and 219R45-MB-21R79 were dosed at 15 mg/kg, and irinotecan was dosed at 45 mg/kg. Tumors were harvested after 4 weeks, processed into single cell suspensions, and the human tumor cells were isolated. 150 tumor cells from each experimental group were injected subcutaneously into a new cohort of mice (n=10 per group) and tumors were allowed to grow without treatment. Tumor growth was monitored and tumor volumes were measured with electronic calipers.

| Structure (SMILES) | tumor growth frequency (mice with tumors) [1] | tumor growth frequency, single agents [2] |
| --- | --- | --- |
| Nc1ccn([C@@H]2O[C@H](CO)[C@@H](O)C2(F)F)c(=O)n1 [gemcitabine, reference compound] | 10 out of 10 | – |
| CCc1c2c(nc3ccc(OC(=O)N4CCC(N5CCCCC5)CC4)cc13)-c1cc3c(c(=O)n1C2)COC(=O)[C@]3(O)CC [irinotecan, reference compound] | – | reduced tumor growth frequency |
